Measured values: patent US9895314B2, “Delayed release pharmaceutical formulation containing porous carrier particles for colon targeting” (Tillotts Pharma AG, priority 2014, dated 2018)

Assay: Accelerated stability study, compatibility of MBZ and FCC (HPLC-UV)
Type: physicochemical
Conditions: drug loaded FCC with 20 and 50% drug content, 25° C., 40° C. and 60° C., 25 days
Method: The compatibility of MBZ and FCC was investigated by an accelerated stability study. Drug loaded FCC particles with 20 and 50% drug content were stored at 25° C., 40° C. and 60° C. over a period of 25 days. On several days the MBZ content was analyzed by HPLC-UV.

Cc1ncc([N+](=O)[O-])n1CCOC(=O)c1ccccc1 [MBZ, metronidazole benzoate]
degradation products from hydrolysis (metronidazole, benzoic acid) detected: not any degradation products
